Laboratory results from patent publication US20250388567A1, “SELECTIVE G PROTEIN-COUPLED RECEPTOR KINASE 5 INHIBITORS, COMPOSITIONS, AND METHODS OF USE” (Purdue Research Foundation, priority 2022, published 2025).

Key:
bovine GRK2 = bovine GRK2 (Bos taurus (Bovine), UniProt P21146); experiment: GRK2 radiometric inhibition assay (tubulin phosphorylation, [γ-32P]-ATP); assay type: biochemical; conditions: 50 nM GRK, 500 nM tubulin, 5 μM ATP
Procedure: (§1) Reactions were quenched at 8 min by addition of 5 μL of 4×SDS gel loading dye to the 10 μL reactions. […] Gels were dried, exposed to a storage phosphor screen overnight, and scanned using a Personal Molecular Imager (Bio-Rad). […] Outliers were eliminated automatically at a 1% Q value. Experiments were performed at least three times.
(§2) Standard control compounds are run during each assay to assess consistency across time, experimenters, and subtle changes in assay conditions that are sometimes required to keep compounds soluble and dispersed (e.g., through addition of DDM or 3% DMSO).

human GRK5 = human GRK5 (Homo sapiens (Human), UniProt P34947); experiment: GRK5 radiometric inhibition assay (tubulin phosphorylation, [γ-32P]-ATP); assay type: biochemical; conditions: 50 nM GRK, 500 nM tubulin, 5 μM ATP
Procedure: as §1, §2

human GRK5, sequence (P34947 whole entry): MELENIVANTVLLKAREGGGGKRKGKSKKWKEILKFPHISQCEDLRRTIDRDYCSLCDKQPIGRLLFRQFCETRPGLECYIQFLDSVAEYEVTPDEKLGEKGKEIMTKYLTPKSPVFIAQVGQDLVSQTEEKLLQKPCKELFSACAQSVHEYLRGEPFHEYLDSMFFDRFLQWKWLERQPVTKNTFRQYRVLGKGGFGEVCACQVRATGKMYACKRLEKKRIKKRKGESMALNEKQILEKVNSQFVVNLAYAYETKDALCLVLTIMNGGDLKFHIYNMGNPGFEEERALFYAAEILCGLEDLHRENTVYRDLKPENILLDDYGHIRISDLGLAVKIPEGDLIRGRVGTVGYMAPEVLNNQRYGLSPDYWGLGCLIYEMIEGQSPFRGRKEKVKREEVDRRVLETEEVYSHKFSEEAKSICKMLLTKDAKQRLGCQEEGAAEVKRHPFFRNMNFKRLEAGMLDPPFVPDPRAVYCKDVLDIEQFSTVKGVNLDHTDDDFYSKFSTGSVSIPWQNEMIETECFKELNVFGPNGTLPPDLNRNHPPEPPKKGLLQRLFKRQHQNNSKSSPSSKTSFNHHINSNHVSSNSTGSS
bovine GRK2, sequence (P21146 whole entry): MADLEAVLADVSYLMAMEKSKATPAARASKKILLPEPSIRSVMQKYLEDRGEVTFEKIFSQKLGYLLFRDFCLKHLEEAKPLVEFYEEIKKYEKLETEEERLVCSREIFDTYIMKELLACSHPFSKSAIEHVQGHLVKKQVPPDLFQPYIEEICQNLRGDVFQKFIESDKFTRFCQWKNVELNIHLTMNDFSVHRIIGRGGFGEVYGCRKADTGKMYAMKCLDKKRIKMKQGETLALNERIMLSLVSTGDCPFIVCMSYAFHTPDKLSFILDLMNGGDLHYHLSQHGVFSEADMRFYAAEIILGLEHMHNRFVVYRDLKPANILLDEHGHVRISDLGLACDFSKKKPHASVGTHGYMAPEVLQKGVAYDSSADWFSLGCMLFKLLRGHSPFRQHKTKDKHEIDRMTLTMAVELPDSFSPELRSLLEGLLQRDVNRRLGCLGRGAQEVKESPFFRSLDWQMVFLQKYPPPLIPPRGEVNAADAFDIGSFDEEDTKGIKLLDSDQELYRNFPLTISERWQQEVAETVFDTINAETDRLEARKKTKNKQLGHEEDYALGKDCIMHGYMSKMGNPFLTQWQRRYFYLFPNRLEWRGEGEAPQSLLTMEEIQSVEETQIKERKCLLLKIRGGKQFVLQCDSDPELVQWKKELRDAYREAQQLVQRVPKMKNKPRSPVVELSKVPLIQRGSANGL

IC50 (bovine GRK2) [nM] | IC50 (human GRK5) [nM] | Compound
> 10000 | 1 to 100 | Cc1[nH]c(/C=C2\C(=O)Nc3ccc(C(=O)N[C@H](C)c4ccc(F)cc4)cc32)c(C)c1C(=O)NCC1CCCO1 (mixture of isomers) [Compound 35]
1000 to 10000 | 1 to 100 | Cc1[nH]c(/C=C2\C(=O)Nc3ccc(C(=O)N[C@H](C)c4ccccc4)cc32)c(C)c1C(=O)NC1CCOC1 (mixture of isomers) [Compound 39]
1000 to 10000 | 1 to 100 | Cc1[nH]c(/C=C2\C(=O)Nc3ccc(C(=O)N[C@H](C)c4ccccc4)cc32)c(C)c1C(=O)NCC1CCOC1 (mixture of isomers) [Compound 40]
> 10000 |  | Cc1[nH]c(/C=C2\C(=O)Nc3ccc(C(=O)N[C@H](C)c4ccc(F)cc4)cc32)c(C)c1NC(=O)C(O)c1ccccc1 (stereo partly drawn) [Compound 1]
> 10000 | 101 to 999 | COc1cccc2[nH]c(C(O)C(=O)Nc3c(C)[nH]c(/C=C4\C(=O)Nc5ccc(C(=O)N[C@H](C)c6ccc(F)cc6)cc54)c3C)cc12 (stereo partly drawn) [Compound 4]
> 10000 | 101 to 999 | Cc1[nH]c(/C=C2\C(=O)Nc3ccc(C(=O)N[C@H](C)c4ccccc4)cc32)c(C)c1C(=O)N[C@@H]1c2ccccc2C[C@@H]1O [Compound 5]
> 10000 | 101 to 999 | Cc1[nH]c(/C=C2\C(=O)Nc3ccc(C(=O)N[C@H](C)c4ccccc4)cc32)c(C)c1C(=O)N[C@@H]1c2ccccc2C[C@H]1O [Compound 6]
> 10000 | 101 to 999 | Cc1[nH]c(/C=C2\C(=O)Nc3ccc(C(=O)N[C@H](C)c4ccccc4)cc32)c(C)c1C(=O)N[C@H]1c2ccccc2C[C@@H]1O [Compound 7]
> 10000 | 101 to 999 | Cc1[nH]c(/C=C2\C(=O)Nc3ccc(C(=O)N[C@H](C)c4ccccc4)cc32)c(C)c1C(=O)N[C@H]1c2ccccc2C[C@H]1O [Compound 8]
> 10000 | > 10000 | Cc1[nH]c(/C=C2\C(=O)Nc3ccc(C(=O)N[C@@H]4CCc5ccccc54)cc32)c(C)c1NC(=O)C(=O)c1ccco1 [Compound 9]
> 10000 | 101 to 999 | Cc1[nH]c(/C=C2\C(=O)Nc3ccc(C(=O)N[C@@H]4CCc5ccccc54)cc32)c(C)c1NC(=O)C(O)c1ccco1 (stereo partly drawn) [Compound 10]
> 10000 | 1000 to 10000 | Cc1[nH]c(/C=C2\C(=O)Nc3ccc(C(=O)N[C@H]4CCc5ccccc54)cc32)c(C)c1NC(=O)C(=O)c1ccco1 [Compound 11]
> 10000 | 1000 to 10000 | Cc1[nH]c(/C=C2\C(=O)Nc3ccc(C(=O)N[C@H]4CCc5ccccc54)cc32)c(C)c1NC(=O)C(O)c1ccco1 (stereo partly drawn) [Compound 12]
> 10000 | 101 to 999 | Cc1[nH]c(CC2C(=O)Nc3ccc(C(=O)N[C@H](C)c4ccc(F)cc4)cc32)c(C)c1NC(=O)[C@H](O)c1ccco1 (stereo partly drawn) [Compound 13]
> 10000 | 1000 to 10000 | Cc1[nH]c(/C=C2\C(=O)Nc3ccc(C(=O)N[C@H](C)c4ccccc4)cc32)c(C)c1C(=O)N[C@@H]1CCc2ccccc21 [Compound 16]
> 10000 | > 10000 | Cc1[nH]c(/C=C2\C(=O)Nc3ccc(C(=O)N[C@H](C)c4ccccc4)cc32)c(C)c1C(=O)N[C@H]1CCc2ccccc21 [Compound 17]
> 10000 | 101 to 999 | Cc1[nH]c(/C=C2\C(=O)Nc3ccc(C(=O)N[C@H](C)c4ccccc4)cc32)c(C)c1C(O)C#N (stereo partly drawn) [Compound 18]
> 10000 | 101 to 999 | Cc1[nH]c(/C=C2\C(=O)Nc3ccc(C(=O)N[C@H](C)c4ccc(F)cc4)cc32)c(C)c1C(=O)N[C@@H]1c2ccccc2C[C@H]1O [Compound 19]
> 10000 | 101 to 999 | Cc1[nH]c(/C=C2\C(=O)Nc3ccc(C(=O)N[C@H](C)c4ccccc4)cc32)c(C)c1C(=O)N[C@H]1C(=O)Cc2ccccc21 [Compound 20]
1000 to 10000 | 1 to 100 | Cc1[nH]c(/C=C2\C(=O)Nc3ccc(C(=O)N[C@H](C)c4ccc(F)cc4)cc32)c(C)c1NC(=O)C(O)c1ccoc1 (stereo partly drawn) [Compound 22]

IC50 (bovine GRK2) [nM] | IC50 (human GRK5) [nM] | Compound
> 10000 | > 10000 | COCO[C@@H]1Cc2ccccc2[C@H]1NC(=O)c1c(C)[nH]c(/C=C2\C(=O)Nc3ccc(C(=O)N[C@H](C)c4ccccc4)cc32)c1C [Compound 23]
> 10000 | 101 to 999 | Cc1[nH]c(/C=C2\C(=O)Nc3ccc(C(=O)N[C@H](C)c4ccccc4)cc32)c(C)c1C(=O)N[C@@H]1c2ccccc2CC[C@@H]1O [Compound 24]
> 10000 | 101 to 999 | Cc1[nH]c(/C=C2\C(=O)Nc3ccc(C(=O)N[C@H](C)c4ccccc4)cc32)c(C)c1C(=O)N[C@H]1c2ccccc2CC[C@H]1O [Compound 25]
> 10000 | 101 to 999 | Cc1[nH]c(/C=C2\C(=O)Nc3ccc(C(=O)N[C@H](C)c4ccccc4)cc32)c(C)c1C(=O)NC1c2ccccc2OCC1O (stereo partly drawn) [Compound 26]
1000 to 10000 | 1 to 100 | Cc1[nH]c(/C=C2\C(=O)Nc3ccc(C(=O)N[C@H](C)c4ccccc4)cc32)c(C)c1C(=O)NCC(O)c1ccco1 (stereo partly drawn) [Compound 27]
> 10000 | 101 to 999 | COc1cccc(C(O)C(=O)Nc2c(C)[nH]c(/C=C3\C(=O)Nc4ccc(C(=O)N[C@H](C)c5ccc(F)cc5)cc43)c2C)c1 (stereo partly drawn) [Compound 28]
1000 to 10000 | 1 to 100 | Cc1[nH]c(/C=C2\C(=O)Nc3ccc(C(=O)N[C@H](C)c4ccccc4)cc32)c(C)c1C(=O)NCc1ccco1 [Compound 29]
1000 to 10000 | 1 to 100 | Cc1[nH]c(/C=C2\C(=O)Nc3ccc(C(=O)N[C@H](C)c4ccccc4)cc32)c(C)c1C(=O)NCC1CCCO1 (stereo partly drawn) [Compound 30]
1000 to 10000 | 1 to 100 | Cc1[nH]c(/C=C2\C(=O)Nc3ccc(C(=O)N[C@H](C)c4ccccc4)cc32)c(C)c1C(=O)NC(C)c1ccco1 (stereo partly drawn) [Compound 31]
1000 to 10000 | 1 to 100 | Cc1[nH]c(/C=C2\C(=O)Nc3ccc(C(=O)N[C@H](C)c4ccccc4)cc32)c(C)c1C(=O)NCC(O)c1ccoc1 (stereo partly drawn) [Compound 32]
1000 to 10000 | 101 to 999 | Cc1[nH]c(/C=C2\C(=O)Nc3ccc(C(=O)N[C@H](C)c4ccccc4)cc32)c(C)c1C(=O)Nc1nc2ccccc2[nH]1 [Compound 33]
1000 to 10000 | 1 to 100 | Cc1[nH]c(/C=C2\C(=O)Nc3ccc(C(=O)N[C@H](C)c4ccccc4)cc32)c(C)c1C(=O)N[C@H]1Cc2ccccc2[C@H]1O [Compound 34]
> 10000 | 1 to 100 | Cc1[nH]c(/C=C2\C(=O)Nc3ccc(C(=O)N[C@H](C)c4ccccc4)cc32)c(C)c1C(=O)NC[C@H]1CCCO1 [Compound 36]
1000 to 10000 | 1 to 100 | Cc1[nH]c(/C=C2\C(=O)Nc3ccc(C(=O)N[C@H](C)c4ccccc4)cc32)c(C)c1C(=O)NC[C@@H]1CCCO1 [Compound 37]
> 10000 | 1 to 100 | Cc1[nH]c(/C=C2\C(=O)Nc3ccc(C(=O)N[C@H](C)c4ccccc4)cc32)c(C)c1C(=O)NCC1CCCCO1 (stereo partly drawn) [Compound 38]
> 10000 | 1 to 100 | Cc1[nH]c(/C=C2\C(=O)Nc3ccc(C(=O)N[C@H](C)c4ccccc4)cc32)c(C)c1C(=O)NCC1CC(=O)c2ccccc2O1 (stereo partly drawn) [Compound 41]
> 10000 | 101 to 999 | Cc1[nH]c(/C=C2\C(=O)Nc3ccc(C(=O)N[C@H](C)c4ccccc4)cc32)c(C)c1C(=O)NC1CCS(=O)(=O)CC1 [Compound 42]
> 10000 | 1000 to 10000 | Cc1[nH]c(/C=C2\C(=O)Nc3ccc(C(=O)N[C@H](C)c4ccccc4)cc32)c(C)c1C(=O)NC1CCOCC1 [Compound 43]
> 10000 | 1 to 100 | Cc1[nH]c(/C=C2\C(=O)Nc3ccc(C(=O)N[C@H](C)c4ccccc4)cc32)c(C)c1C(=O)NCC(O)C1CCOC1 (stereo partly drawn) [Compound 44]

Compound | IC50 (bovine GRK2) [nM] | IC50 (human GRK5) [nM]
Cc1[nH]c(/C=C2\C(=O)Nc3ccc(C(=O)N[C@H](C)c4ccc(F)cc4)cc32)c(C)c1NC(=O)c1ccoc1 [Compound 21] |  | 1 to 100
